Patent US7347984B2, “Mammalian agmatinase inhibitory substance” (Jackson State University, priority 2004, dated 2008)
Structures can show the parent of a compound that is named as a salt.

How the values were obtained:
[1] = biological target: T1, rat nNOS (neuronal NOS) (Rattus norvegicus, UniProt P29476); assay: NOS activity, [3H]arginine to [3H]citrulline conversion, nNOS; format: biochemical; conditions: Conc = 1 mM
T1 construct: purchased Cayman, Ann Arbor, Mich
Method: (§1) NOS activity was measured by monitoring the conversion of [^3H]arginine to [^3H]citrulline (Bret et al. 1990) using three commercially available isoforms of rat NOS: nNOS (neuronal NOS) (602 units/ml, 14.9 mg/ml), iNOS (inducible NOS) (249.7 units/ml, 21.1 mg/ml), and eNOS (epithelial NOS) (30 units/ml, 14.6 mg/ml) (Cayman, Ann Arbor, Mich.). Neuronal NOS and iNOS were diluted 1:10, while eNOS was used directly without dilution. Unless otherwise indicated, each tube was incubated at 37° C. for 60 minutes. Assay buffer contained 50 mM Tris-HCl, pH7.4, 2 mM CaCl2, 1 mM NADPH, 10 mM BH4, 5 mM FAD, 5 mM FMN, and 10 mg/ml calmodulin plus radioactive precursor. After incubation, the assay reaction was halted by addition of 400 μl of buffer containing 5 mM EDTA and 50 mM HEPES. Equilibrated resin ([…], Dowex AG50WX-8 (Na^+ form) was added and the reaction mixture was transferred to spin cups and into cup holders. The mixture was passed through the Dowex AG50WX-8 resin and the filtrate collected in a spin cup. NOS activity was determined by counting the radioactivity in the flow-through (unbound) fraction. Each assay was measured in triplicate.
(§2) QSAR were studied by ab initio Hartree-Fock calculations with the Gaussian 94 computer program (Frisch et al. 1995). Based on the optimized geometry and van der Waals radius of each atom, calculations were performed with BlogP and BlogW programs (Bodor et al. 1989, 1992A, and 1992B) to determine molecular surfaces, volumes, ovalities, partition coefficients, and water solubilities. Linear combinations of these calculated descriptors were then fitted to the observed enzyme activities. The observed activities were the remaining percentage of rat agmatinase activity at 0.5 mM of each compound, the remaining percentage of rat NOS isozyme activity at 1 mM of each compound, and the remaining percentage of rat brain NMDA receptor binding at 0.1 mM of each compound.

[2] = biological target: T2, rat iNOS (inducible NOS) (Rattus norvegicus, UniProt Q06518); assay: NOS activity, [3H]arginine to [3H]citrulline conversion, iNOS; format: biochemical; conditions: Conc = 1 mM
T2 construct: purchased Cayman, Ann Arbor, Mich
Method: as §1, §2

[3] = test system: rat brain NMDA receptor; assay: [3H]-MK801 binding assay in rat brain membranes; conditions: Conc = 0.1 mM
Method: The binding of [^3H]-MK801 to NMDA (N-methyl-D-aspartate) receptors was measured in rat brain membranes as described in Renolds et al. (1990). Briefly, the membranes were incubated in HEPES buffer (pH 7.4) containing 0.4 nM [^3H]-MK801, 100 μM glutamate, and 30 μM glycine for 1 hour at 25° C. The binding was terminated by rapid filtration over glass fiber filters and radioactivity counted. Nonspecific binding was defined using 50 μM unlabelled MK801.
QSAR were studied by ab initio Hartree-Fock calculations with the Gaussian 94 computer program (Frisch et al. 1995). Based on the optimized geometry and van der Waals radius of each atom, calculations were performed with BlogP and BlogW programs (Bodor et al. 1989, 1992A, and 1992B) to determine molecular surfaces, volumes, ovalities, partition coefficients, and water solubilities. Linear combinations of these calculated descriptors were then fitted to the observed enzyme activities.

[4] = test system: rat agmatinase; assay: Agmatinase activity assay ([14C]-agmatine hydrolysis); format: biochemical; conditions: for Agmatinase activity remaining (%): Conc = 0.5 mM; for Activity for inhibiting agmatinase, in words: among the 14 test compounds
Method: Agmatinase activity was measured by the method of Satishchandran and Boyle (1986) as detailed in Sastre et al. (1996). The assay is based on the hydrolysis of guanido [^14C]-agmatine to [^14C]-urea and putrescine, and subsequent trapping of [^14C]—CO2 from the labeled urea, by the addition of urease. Assays were carried out for 30 minutes at 37° C. in 300 μl of sample containing 100 mM HEPES, pH 7.8, 4 mM MgSO4, 1 mM dithiothreitol, 10 mM L-agmatine, 7 μM [^14C]-agmatine and 0.06 units of urease. Release of [^14C]—CO2 from [^14C]-urea was measured by trapping the [^14C]—CO2 in filter paper wicks saturated with benzethonium hydroxide. The reaction was stopped by injection of 40% trichloroacetic acid into the reaction chamber and the filters transferred to mini-vials containing 5 mL CYTOSCINT® cocktail (ICN Biomedicals), and counted for radioactivity by liquid scintillation spectrometry using a Beckman model LS 5801 scintillation counter.
as §2

[5] = biological target: T3, rat eNOS (epithelial NOS) (Rattus norvegicus, UniProt Q62600); assay: NOS activity, [3H]arginine to [3H]citrulline conversion, eNOS; format: biochemical; conditions: Conc = 1 mM
T3 construct: purchased Cayman, Ann Arbor, Mich
Method: as §1, §2

Compound | Activity Remaining (%) nNOS [1] [%] | Activity Remaining (%) iNOS [2] [%] | 3H-MK801 Binding Remaining (%) [3] [%] | Agmatinase activity remaining (%) [4] [%] | Activity Remaining (%) eNOS [5] [%] | remaining activity at 1000 µM [1] [%] | remaining activity at 1000 µM [2] [%] | remaining activity at 1000 µM [5] [%] | Activity for inhibiting agmatinase, in words [4]
N=CNCCCNCCCNC=N [Bis (3-(N-Iminomethyl)-aminopropyl)amine] | 23.5 | 65.2 | 99.7 | 38.0 | 88.7 |  |  |  | 
N=C(N)NCCCCN.O=S(=O)(O)O [Agmatine sulfate, reference compound] |  |  | 93.8 | 37 |  | 32.5 | 35.2 | 97.4 | 
Trans-4-Aminocyclohexyl guanidine | 42.5 | 99.6 |  | 97.0 | 69.4 |  |  |  | best activity
N=C(N)NN [Amino guanidine, reference compound] |  |  | 90.6 | 53 |  | 20 | 1 | 30 | 
O=[N+]([O-])c1cccc2cn[nH]c12 [7-nitroindazole, reference compound] |  |  |  |  |  | 1 | 1 | 0 | 
NC(N)=NCCCCN=C(N)N [Arcaine sulfate, reference compound] |  |  | 45.1 | 29.5 |  | 9.8 | 37.8 | 83.4 | 
N=C(N)NCCCN [3-Aminopropylguanidine] | 6.9 | 5.1 | 93.9 | 3.1 | 60.8 |  |  |  | best activity
C=C[C@](N)(CCCNC(=N)N)C(=O)O (racemic) [Alpha-Vinylarginine] |  |  | 99.7 | 52.0 |  | 4.2 | 7 | 67.4 | 
